The record followed here is patent US20100204231A1, “AMINO-THIAZOLYL-PYRIMIDINE DERIVATIVES AND THEIR USE FOR THE TREATMENT OF CANCER” (ASTRAZENECA AB, priority 2007, published 2010).

T1 sequence (O60674 808-1132 limits assumed): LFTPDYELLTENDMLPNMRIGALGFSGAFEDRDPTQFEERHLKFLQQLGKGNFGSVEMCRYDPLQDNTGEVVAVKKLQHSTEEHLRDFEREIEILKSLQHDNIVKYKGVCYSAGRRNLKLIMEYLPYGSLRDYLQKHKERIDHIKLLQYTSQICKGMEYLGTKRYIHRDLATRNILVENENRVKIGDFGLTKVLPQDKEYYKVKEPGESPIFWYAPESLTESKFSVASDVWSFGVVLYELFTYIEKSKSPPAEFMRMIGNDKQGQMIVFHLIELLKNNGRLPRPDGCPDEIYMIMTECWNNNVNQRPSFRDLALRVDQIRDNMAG

This assay addresses T1, C-terminal His6-tagged, recombinant, human JAK2, amino acids 808-end (Homo sapiens, UniProt O60674).
T1 construct: human JAK2, amino acids 808-end; His6 (C); purchased Upstate Biotechnology; host or cells: baculovirus in Sf21 cells
The assay is described as follows: JAK2 kinase activity assay (Alphascreen). It counts as biochemical. The conditions noted are these: 150 pM JAK2 enzyme, 30 μM ATP, 80 nM Tyk2 peptide substrate, 60 minutes, room temperature; read-out: JAK inhibitory activity IC50. The protocol:
JAK2 kinase activity was determined by measuring the kinase's ability to phosphorylate synthetic tyrosine residues within a generic polypeptide substrate using an Amplified Luminescent Proximity Assay (Alphascreen) technology (PerkinElmer, 549 Albany Street, Boston, Mass.).
To measure JAK2 kinase activity, a commercially available purified enzyme may be used. The enzyme may be C-terminal His6-tagged, recombinant, human JAK2, amino acids 808-end, (Genbank Accession number NM 004972) expressed by baculovirus in Sf21 cells (Upstate Biotechnology MA). After incubation of the kinase with a biotinylated substrate and adenosine triphosphate (ATP) for 60 minutes at room temperature, the kinase reaction may be stopped by the addition of 30 mM ethylenediaminetetraacetic acid (EDTA). The reaction may be performed in 384 well microtitre plates and the reaction products may be detected with the addition of streptavidin coated Donor Beads and phosphotyrosine-specific antibodies coated Acceptor Beads using the EnVision Multilabel Plate Reader after an overnight incubation at room temperature.
For orientation: In Alpha technology, singlet oxygen from a donor bead excites a nearby acceptor bead.
The term IC50 denotes the concentration at which inhibition is half-maximal. Turning to `COc1cc(Nc2ncc(C)s2)nc(N[C@@H](C)c2ncc(F)cn2)n1` [Example 10, (S)—N^2-(1-(5-Fluoropyrimidin-2-yl)ethyl)-6-methoxy-N^4-(5-methylthiazol-2-yl)pyrimidine-2,4-diamine], the IC50 worked out at 3 nM. The result for `Cc1cnc(Nc2nc(N[C@@H](C)c3ncc(F)cn3)nc(N3CCOCC3)c2F)s1` [Example 4, 5-Fluoro-N^2-[(1S)-1-(5-fluoropyrimidin-2-yl)ethyl]-N^4-(5-methyl-1,3-thiazol-2-yl)-6-morpholin-4-ylpyrimidine-2,4-diamine] reads 3 nM; that for `Cc1cnc(Nc2nc(N[C@@H](C)c3ccc(F)cn3)ncc2Cl)s1` [Example 3, 5-Chloro-N^2-[(1S)-1-(5-fluoropyridin-2-yl)ethyl]-N^4-(5-methyl-1,3-thiazol-2-yl)pyrimidine-2,4-diamine], 902 nM. The same measure for `Cc1cnc(Nc2nc(N[C@@H](C)c3ccc(F)cc3)ncc2Cl)s1` [Example 1, 5-Chloro-N^2-[(1S)-1-(4-fluorophenyl]ethyl)-N^4-(5-methyl-1,3-thiazol-2-yl)pyrimidine-2,4-diamine]: 6 nM; for `Cc1cnc(Nc2cc(N3CCN(C)CC3)nc(N[C@@H](C)c3ccc(F)cn3)n2)s1` [Example 5, N^2-[(S)-1-(5-Fluoro-pyridin-2-yl)-ethyl]-6-(4-methyl-piperazin-1-yl)-N^4-(5-methyl-thiazol-2-yl)-pyrimidine-2,4-diamine]: 3 nM. With `C[C@H](Nc1nc(Nc2ncc(C#N)s2)cc(N2CCOCC2)n1)c1ccc(F)cn1` [Example 8, 2-[(2-{[(1S)-1-(5-Fluoropyridin-2-yl)ethyl]amino}-6-morpholin-4-ylpyrimidin-4-yl)amino]-1,3-thiazole-5-carbonitrile], the IC50 worked out at 3 nM.

On to `COC(=O)c1cnc(Nc2nc(N[C@@H](C)c3ccc(F)cc3)ncc2Cl)s1` [Example 2, Methyl 2-[(5-chloro-2-{[(1S)-1-(4-fluorophenyl)ethyl]amino}pyrimidin-4-yl)amino]-1,3-thiazole-5-carboxylate], for which the IC50 stood at 170 nM.
